Experimental data taken from patent publication US11149054B2, “Oxysterols and methods of use thereof” (Sage Therapeutics, Inc., priority 2016, dated 2021).
Where two headings read alike, the source gives them in different places.

Tests used:
[1] = target: GlunN1/GluN2A glutamate receptors (Homo sapiens (Human), UniProt Q05586+Q12879); test: Whole-cell patch clamp of mammalian cells (Ionworks Barracuda), positive allosteric modulation, GluN1/GluN2A; format: cell-based
Protocol: (§1) The measurements were performed using Ion Works Barracuda platform following this procedure:
(§2) Electrophysiological Procedures:
(§3) • a) Intracellular solution (mM): 50 mM CsCl, 90 mM CsF, 2 mM MgCl2, 5 mM EGTA, 10 mM HEPES. Adjust to pH 7.2 with CsOH. • b) Extracellular solution, HB-PS (composition in mM): NaCl, 137; KCl, 1.0; CaCl2), 5; HEPES, 10; Glucose, 10; pH adjusted to 7.4 with NaOH (refrigerated until use). • c) Holding potential: −70 mV, potential during agonist/PAM application: −40 mV. Recording Procedure: • a) Extracellular buffer will be loaded into the PPC plate wells (11 μL per well). Cell suspension will be pipetted into the wells (9 μL per well) of the PPC planar electrode. • b) Whole-cell recording configuration will be established via patch perforation with membrane currents recorded by on-board patch clamp amplifiers. • c) Two recordings (scans) will be performed. First, during pre-application of test article alone (duration of pre-application—[…]) and second, during test articles and agonist (EC20 L-glutamate and 30 μM glycine) co-application to detect positive modulatory effects of the test article. […] Potentiating Effect of Positive Allosteric Modulators (PAM) on the Channel
(§4) PAM concentration-response data will be fitted to an equation of the form: % Activation=% L-glutamate EC20+{(% MAX−% L-glutamate EC20)/[1+([Test]/EC50)^N]}, where [Test] will be the concentration of PAM (test article), EC50 will be the concentration of PAM producing half-maximal activation, N will be the Hill coefficient, % L-glutamate EC20 will be the percentage of the current Elicited with L-glutamate EC20, % MAX is the percentage of the current activated with the highest dose of PAM co-admitted with L-glutamate EC20 and % Activation will be the percentage of the current elicited with L-glutamate EC10-30 at each PAM concentration. The maximal amplitude of the evoked currents are measured and defined as Peak Current Amplitude (PCA).

[2] = target: GluN2B glutamate receptors (Homo sapiens (Human), UniProt Q05586+Q13224); test: Whole-cell patch clamp of mammalian cells (Ionworks Barracuda), positive allosteric modulation, GluN2B; format: cell-based; conditions: for Emax: read-out: Avg Emax 2B (%)
Protocol: as §1, §2, §3, §4

[3] = HEK293 cells, % potentiation of current elicited with EC20 L-glutamate and 30 μM glycine, read-out: Avg Emax 2A (%)
[4] = HEK293 cells, co-application with EC20 L-glutamate and 30 μM glycine, 8-point concentration-response, read-out: Avg EC50 2A
[5] = % potentiation of current elicited with EC20 L-glutamate and 30 μM glycine
[6] = co-application with EC20 L-glutamate and 30 μM glycine, 8-point concentration-response, read-out: Avg EC50 2B
[7] = HEK293, read-out: Avg Emax 2A (%)

Chain of GluN2B glutamate receptors (Q13224 27-1484, other chains not shown): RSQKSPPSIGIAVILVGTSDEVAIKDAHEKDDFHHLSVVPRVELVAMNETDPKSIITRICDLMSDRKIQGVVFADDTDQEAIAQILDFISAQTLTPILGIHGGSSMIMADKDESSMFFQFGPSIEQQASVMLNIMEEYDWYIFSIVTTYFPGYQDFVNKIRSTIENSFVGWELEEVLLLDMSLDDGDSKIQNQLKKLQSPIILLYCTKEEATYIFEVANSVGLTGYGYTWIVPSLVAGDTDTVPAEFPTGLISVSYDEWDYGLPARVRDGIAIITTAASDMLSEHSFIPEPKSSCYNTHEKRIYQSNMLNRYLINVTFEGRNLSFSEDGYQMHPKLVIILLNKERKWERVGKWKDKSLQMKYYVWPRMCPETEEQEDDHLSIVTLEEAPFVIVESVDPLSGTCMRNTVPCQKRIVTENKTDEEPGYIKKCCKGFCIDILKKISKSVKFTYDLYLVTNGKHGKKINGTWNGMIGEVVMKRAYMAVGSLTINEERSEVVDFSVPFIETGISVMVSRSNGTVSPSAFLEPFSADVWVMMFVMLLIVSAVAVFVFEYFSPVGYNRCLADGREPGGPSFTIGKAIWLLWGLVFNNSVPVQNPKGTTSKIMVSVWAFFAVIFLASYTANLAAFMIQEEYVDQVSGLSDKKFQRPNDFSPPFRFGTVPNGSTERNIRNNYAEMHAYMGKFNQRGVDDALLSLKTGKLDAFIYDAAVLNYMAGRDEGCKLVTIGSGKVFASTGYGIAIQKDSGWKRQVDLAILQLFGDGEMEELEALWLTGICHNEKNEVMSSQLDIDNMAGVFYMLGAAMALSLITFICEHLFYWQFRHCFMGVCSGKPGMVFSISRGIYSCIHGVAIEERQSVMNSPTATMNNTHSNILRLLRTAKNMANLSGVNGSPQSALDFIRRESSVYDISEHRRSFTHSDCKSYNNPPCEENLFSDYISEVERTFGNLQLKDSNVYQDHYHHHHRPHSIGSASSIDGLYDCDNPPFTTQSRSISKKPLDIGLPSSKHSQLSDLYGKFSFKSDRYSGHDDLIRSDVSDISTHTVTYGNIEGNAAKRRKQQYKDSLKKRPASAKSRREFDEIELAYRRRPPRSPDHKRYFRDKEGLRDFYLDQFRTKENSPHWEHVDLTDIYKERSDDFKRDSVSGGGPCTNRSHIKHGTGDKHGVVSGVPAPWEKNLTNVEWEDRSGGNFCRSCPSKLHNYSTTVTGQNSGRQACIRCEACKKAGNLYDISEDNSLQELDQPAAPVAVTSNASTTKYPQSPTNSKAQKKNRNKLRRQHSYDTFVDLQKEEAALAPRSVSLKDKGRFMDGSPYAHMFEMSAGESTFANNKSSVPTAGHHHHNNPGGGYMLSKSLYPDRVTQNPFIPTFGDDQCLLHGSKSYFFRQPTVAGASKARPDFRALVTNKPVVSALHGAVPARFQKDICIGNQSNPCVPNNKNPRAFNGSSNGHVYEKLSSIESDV
Chain of GlunN1/GluN2A glutamate receptors (Q12879 23-1464, other chains not shown): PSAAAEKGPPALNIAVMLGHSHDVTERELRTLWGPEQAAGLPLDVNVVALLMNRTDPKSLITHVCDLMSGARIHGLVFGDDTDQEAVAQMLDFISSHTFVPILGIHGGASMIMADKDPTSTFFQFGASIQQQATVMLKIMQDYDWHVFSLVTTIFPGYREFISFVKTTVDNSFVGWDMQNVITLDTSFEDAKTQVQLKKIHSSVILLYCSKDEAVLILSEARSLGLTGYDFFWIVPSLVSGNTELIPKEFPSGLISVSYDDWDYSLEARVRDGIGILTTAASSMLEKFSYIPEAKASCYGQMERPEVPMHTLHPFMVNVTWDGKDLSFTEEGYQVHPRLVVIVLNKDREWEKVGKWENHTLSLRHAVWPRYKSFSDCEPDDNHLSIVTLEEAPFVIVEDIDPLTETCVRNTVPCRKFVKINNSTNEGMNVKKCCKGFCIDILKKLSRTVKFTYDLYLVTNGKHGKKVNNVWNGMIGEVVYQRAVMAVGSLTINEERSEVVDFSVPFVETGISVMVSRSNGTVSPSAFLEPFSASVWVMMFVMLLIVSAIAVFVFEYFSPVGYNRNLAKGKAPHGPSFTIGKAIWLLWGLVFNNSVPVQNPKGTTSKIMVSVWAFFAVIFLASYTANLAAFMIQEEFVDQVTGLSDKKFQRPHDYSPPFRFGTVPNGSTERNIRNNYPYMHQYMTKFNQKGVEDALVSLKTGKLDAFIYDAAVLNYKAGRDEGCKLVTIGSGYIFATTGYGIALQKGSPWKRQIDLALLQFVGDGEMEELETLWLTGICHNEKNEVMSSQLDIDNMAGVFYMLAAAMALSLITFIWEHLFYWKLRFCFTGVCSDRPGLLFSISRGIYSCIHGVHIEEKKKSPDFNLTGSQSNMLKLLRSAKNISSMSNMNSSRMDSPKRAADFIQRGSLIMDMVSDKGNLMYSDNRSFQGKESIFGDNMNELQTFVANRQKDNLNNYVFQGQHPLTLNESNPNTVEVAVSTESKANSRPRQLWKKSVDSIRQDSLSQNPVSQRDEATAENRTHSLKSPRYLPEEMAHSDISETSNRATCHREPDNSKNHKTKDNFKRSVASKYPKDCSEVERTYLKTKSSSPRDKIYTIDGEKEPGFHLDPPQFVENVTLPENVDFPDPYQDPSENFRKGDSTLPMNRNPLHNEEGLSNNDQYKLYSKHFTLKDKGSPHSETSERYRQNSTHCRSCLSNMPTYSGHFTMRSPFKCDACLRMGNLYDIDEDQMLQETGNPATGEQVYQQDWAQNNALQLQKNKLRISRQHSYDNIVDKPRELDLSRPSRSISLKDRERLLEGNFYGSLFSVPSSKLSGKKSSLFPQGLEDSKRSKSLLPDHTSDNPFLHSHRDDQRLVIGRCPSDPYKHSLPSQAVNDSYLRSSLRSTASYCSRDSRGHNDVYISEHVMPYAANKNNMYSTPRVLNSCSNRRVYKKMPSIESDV

## C[C@H](CCC(O)c1cccnc1)[C@H]1CC[C@H]2[C@@H]3CC=C4C[C@@](C)(O)CC[C@]4(C)[C@H]3CC[C@]12C (stereo partly shown) [Compound 255]
[1]; [3]
  Emax: 159%
[1]; [4]
  EC50: 646 nM
[2]; [5]
  Emax: 132%
[2]; [6]
  EC50: 153 nM

## C[C@H](CC[C@@]1(O)CCOC1)[C@H]1CC[C@H]2[C@@H]3CC[C@H]4C[C@](O)(C(F)(F)F)CC[C@]4(C)[C@H]3CC[C@]12C [Compound 2706]
[1]
  EC50: > 10000 nM
[1]; [3]
  Emax: 96.8%
[2]
  EC50: 124 nM
[2]; [5]
  Emax: 139%

## C[C@H](CCC1(O)CCC(C)(C)CC1)[C@H]1CC[C@H]2[C@@H]3CC[C@H]4C[C@](O)(C(F)(F)F)CC[C@]4(C)[C@H]3CC[C@]12C [Compound E-2817]
[1]; [3]
  Emax: 29.9%
[2]; [5]
  Emax: 20.4%

## CC[C@]1(O)CC[C@H]2C(=CC[C@@H]3[C@@H]2CC[C@]2(C)[C@@H]([C@H](C)CCCC(C)(C)O)CC[C@@H]32)C1 [Compound 194]
[1]; [3]
  Emax: 162%
[1]; [4]
  EC50: 200 nM
[2]; [5]
  Emax: 192%

## CC[C@]1(O)CC[C@H]2C(=CC[C@@H]3[C@@H]2CC[C@]2(C)[C@@H]([C@H](C)CCCC4(O)CCC(C)(C)CC4)CC[C@@H]32)C1 [Compound 10317]
[1]; [3]
  Emax: 56.7%
[2]; [5]
  Emax: 59.9%

## CC(C)[C@@H](O)CC[C@@H](C)[C@H]1CC[C@H]2[C@@H]3CC[C@H]4C[C@](O)(C(F)(F)F)CC[C@]4(C)[C@H]3CC[C@]12C [Compound 2A]
[1]; [3]
  Emax: 653%
[1]; [4]
  EC50: 158 nM
[2]
  EC50: 339 nM

## CC[C@]1(O)CC[C@@]2(C)C(=CC[C@H]3[C@@H]4CC[C@H]([C@H](C)CC[C@@H](O)c5ccccc5)[C@@]4(C)CC[C@@H]32)C1 [Compound 861]
[1]
  EC50: 200 nM
[1]; [3]
  Emax: 183%
[2]
  EC50: 247 nM
[2]; [5]
  Emax: 390%

## C[C@H](CCCC(C)(C)O)[C@H]1CC[C@H]2[C@@H]3CC[C@H]4C[C@](O)(C(F)(F)F)CC[C@]4(C)[C@H]3CC[C@]12C [Compound 5116]
[1]; [3]
  Emax: 185%
[1]; [4]
  EC50: 102 nM
[2]; [5]
  Emax: 214%
[2]; [6]
  EC50: 130 nM

## C[C@H](CC[C@]1(O)CC[C@@H](C)CC1)[C@H]1CC[C@H]2[C@@H]3CC[C@H]4C[C@](O)(C(F)(F)F)CC[C@]4(C)[C@H]3CC[C@]12C [Compound 3886]
[1]; [7]
  Emax: 106%
[2]
  Emax: 164%

## C[C@H](CCC1(O)CCC(OC(F)F)CC1)[C@H]1CC[C@H]2[C@@H]3CC[C@H]4C[C@](O)(C(F)(F)F)CC[C@]4(C)[C@H]3CC[C@]12C (stereo partly shown) [Compound 5131]
[1]; [7]
  Emax: 52.9%
[2]
  Emax: 39%

## CCC1(C)CCC(O)(CC[C@@H](C)[C@H]2CC[C@H]3[C@@H]4CC[C@H]5C[C@](O)(C(F)(F)F)CC[C@]5(C)[C@H]4CC[C@]23C)CC1 (stereo partly shown) [Compound 4906]
[1]; [3]
  Emax: 8.8%
[1]; [4]
  EC50: > 10000 nM
[2]; [5]
  Emax: 14.8%
[2]; [6]
  EC50: > 10000 nM

## C[C@H](CC[C@H](O)C(C)(C)C)[C@H]1CC[C@H]2[C@@H]3CC[C@H]4C[C@](O)(C(F)(F)F)CC[C@]4(C)[C@H]3CC[C@]12C [Compound 2184]
[1]
  EC50: 65.8 nM
[2]
  EC50: 80 nM

## CC[C@]1(O)CC[C@H]2[C@@H](CC[C@@H]3[C@@H]2CC[C@]2(C)[C@@H]([C@H](C)CC[C@@H](O)C(C)C)CC[C@@H]32)C1 [Compound 4B77]
[1]; [3]
  Emax: 467%
[1]; [4]
  EC50: 467 nM
[2]; [5]
  Emax: 320%
[2]; [6]
  EC50: 298 nM

## C[C@H](CCC(O)C(F)(F)F)[C@H]1CC[C@H]2[C@@H]3CC[C@H]4C[C@](O)(C(F)(F)F)CC[C@]4(C)[C@H]3CC[C@]12C (stereo partly shown) [Compound 2918]
[1]
  EC50: 298 nM
[1]; [3]
  Emax: 532%
[2]
  EC50: 339 nM
[2]; [5]
  Emax: 506%

## CO[C@H]1CC[C@](O)(CC[C@@H](C)[C@H]2CC[C@H]3[C@@H]4CC[C@H]5C[C@](O)(C(F)(F)F)CC[C@]5(C)[C@H]4CC[C@]23C)CC1 [Compound 4585]
[1]
  EC50: 215 nM
[1]; [3]
  Emax: 72.2%
[2]
  EC50: 166 nM
[2]; [5]
  Emax: 123%

## CC[C@]1(O)CC[C@H]2C(=CC[C@@H]3[C@@H]2CC[C@]2(C)[C@@H]([C@H](C)CCC[C@@H](C)O)CC[C@@H]32)C1 [Compound 9792]
[1]; [3]
  Emax: 64.5%
[2]; [5]
  Emax: 58.2%

## CC[C@]1(O)CC[C@@]2(C)[C@@H](CC[C@@H]3[C@@H]2CC[C@]2(C)[C@@H]([C@H](C)CC[C@H](O)c4ccccc4)CC[C@@H]32)C1 [Compound 6572]
[1]
  EC50: 378 nM
[1]; [3]
  Emax: 129%
[2]
  EC50: 1340 nM
[2]; [5]
  Emax: 251%

## C[C@H](CCC[C@@H](C)O)[C@H]1CC[C@H]2[C@@H]3CC[C@H]4C[C@](O)(C(F)(F)F)CC[C@]4(C)[C@H]3CC[C@]12C [Compound 112]
[1]; [3]
  Emax: 92.6%
[2]; [5]
  Emax: 151%

## CC[C@]1(O)CC[C@H]2[C@@H](CC[C@@H]3[C@@H]2CC[C@]2(C)[C@@H]([C@H](C)CCCO)CC[C@@H]32)C1 [Compound 376]
[1]
  EC50: > 10000 nM
[1]; [3]
  Emax: 49.9%
[2]
  EC50: > 10000 nM
[2]; [5]
  Emax: 59.8%

## C[C@H](CC[C@H](O)C(C)(C)C)[C@H]1CC[C@H]2[C@@H]3CC[C@@H]4C[C@](O)(C(F)(F)F)CC[C@]4(C)[C@H]3CC[C@]12C [Compound 3634]
[1]
  EC50: 423 nM
[2]
  EC50: 404 nM

## CC[C@]1(O)CC[C@@]2(C)C(=CC[C@H]3[C@@H]4CC[C@H]([C@H](C)CC[C@H](O)c5ccccc5)[C@@]4(C)CC[C@@H]32)C1 [Compound 961]
[1]
  EC50: 617 nM
[1]; [3]
  Emax: 138%
[2]
  EC50: 180 nM
[2]; [5]
  Emax: 97.4%

## CC[C@H](O)CC[C@@H](C)[C@H]1CC[C@H]2[C@@H]3CC=C4C[C@](O)(CC)CC[C@@H]4[C@H]3CC[C@]12C [Compound 8585]
[1]
  EC50: 286 nM
[1]; [3]
  Emax: 194%
[2]
  EC50: 237 nM
[2]; [5]
  Emax: 233%

## C[C@H](CCC1(O)CCC(C(C)(C)C)CC1)[C@H]1CC[C@H]2[C@@H]3CC[C@H]4C[C@](O)(C(F)(F)F)CC[C@]4(C)[C@H]3CC[C@]12C (stereo partly shown) [Compound 4360]
[1]; [3]
  Emax: 38.1%
[2]; [5]
  Emax: 14.6%

## C[C@H](CC[C@@]1(O)CCOC1)[C@H]1CC[C@H]2[C@@H]3CC=C4C[C@](O)(C(F)(F)F)CC[C@]4(C)[C@H]3CC[C@]12C [Compound 3495]
[1]; [7]
  Emax: 107%
[2]
  Emax: 146%

## C[C@H](CCC1(O)CCC(C)(C)CC1)[C@H]1CC[C@H]2[C@@H]3CC=C4C[C@](O)(C(F)(F)F)CC[C@]4(C)[C@H]3CC[C@]12C [Compound 4799]
[1]
  EC50: > 10000 nM
[1]; [3]
  Emax: 36.1%
[2]
  EC50: 760 nM
[2]; [5]
  Emax: 32.8%

## CC[C@]1(O)CC[C@@]2(C)C(=CC[C@H]3[C@@H]4CC[C@H]([C@H](C)CCC(O)c5ccccn5)[C@@]4(C)CC[C@@H]32)C1 (stereo partly shown) [Compound 6457]
[1]
  EC50: 732 nM
[1]; [3]
  Emax: 198%
[2]
  EC50: 524 nM
[2]; [5]
  Emax: 168%

## CC(C)[C@H]1CC[C@](O)(CC[C@@H](C)[C@H]2CC[C@H]3[C@@H]4CC[C@H]5C[C@](O)(C(F)(F)F)CC[C@]5(C)[C@H]4CC[C@]23C)CC1 [Compound 4259]
[1]
  EC50: > 10000 nM
[1]; [3]
  Emax: -13.3%
[2]
  EC50: > 10000 nM
[2]; [5]
  Emax: 24.3%

## CC[C@]1(O)CC[C@@]2(C)C(=CC[C@H]3[C@@H]4CC[C@H]([C@H](C)CC[C@@H](O)c5ccc(C#N)cc5)[C@@]4(C)CC[C@@H]32)C1 (single isomer, unassigned) [Compound 6680]
[1]
  EC50: 1370 nM
[1]; [3]
  Emax: 175%
[2]
  EC50: 464 nM
[2]; [5]
  Emax: 123%

## CC[C@@H](O)CC[C@@H](C)[C@H]1CC[C@H]2[C@@H]3CC[C@H]4C[C@](O)(CC)CC[C@@H]4[C@H]3CC[C@]12C [Compound 9142]
[1]
  EC50: > 10000 nM
[1]; [7]
  Emax: 41.6%
[2]
  EC50: 70.4 nM
  Emax: 44.8%

## CC(C)C(O)CC[C@@H](C)[C@H]1CC[C@H]2[C@@H]3CC[C@H]4C[C@](O)(C(F)(F)F)CC[C@]4(C)[C@H]3CC[C@]12C (stereo partly shown) [Compound 2]
[1]; [3]
  Emax: 709%
[2]
  EC50: 147 nM
[2]; [5]
  Emax: 605%
